In patent publication EP2111858A1, “Novel treatment for alzheimer's disease” (EPFL Ecole Polytechnique Fédérale de Lausanne, priority 2008, dated 2009):

What follows are compounds tested on α- and β-secretase cleavage of APP (assay: Western blot of intracellular APP-C99 and APP-C83 in rat primary neurons exposed to NMDAR modulators). Conditions: 15 DIV, compared to the untreated control, NMDA, D-serine 30µM for 3 minutes, memantine 30µM for 16 hours, DAPT 1 µM for 16 hours.
Format: cell-based
Description: Neuronal cultures and treatments. Cortical and hippocampal neurons were cultured as described^27 from postnatal day 0 rats or mice and all treatments described bellow carried out at 15 days in vitro (DIV). Stimulations with 30µM N-methyl-D-aspartate (NMDA, Tocris), 30µM D-serine (the D isoform of the amino acid serine, Sigma), or a combination of NMDA + D-serine (30µM each) were carried out for 3 minutes and neurons transferred into trophically enriched medium and further incubated for 16 hours. Treatments with 30µM 1-amino-3,5-dimethyladamantane (memantine, Lucerna-Chem), 1 µM N-[N-(3,5-difluorophenacetyl)-L-alanyl]-S-phenylgly cine t-butyl ester (DAPT, ), and 1 µM phorbol 12-myristate 13-acetate (PMA, Sigma) were carried out for 16 hours. Pre-treatments with 1 µM TAPI-1 (Calbiochem), 1 µM GL189 (Calbiochem), 1,2-bis(o-aminophenoxy)ethane-N,N,N',N'-tetraacetic acid (BAPTA, Sigma), H-89, chelerythrine, or KN-62 (Biaffin GmbH & Co KG) were carried out for 1 hour. Next, neurons were treated (or not) with NMDA or NMDA + D-serine as described above, and cells transferred into trophically enriched medium and incubated for additional 15 hours. Whole cell lysates were prepared for Western blot analysis as described below.
Western blotting and antibodies. Cells were washed with cold phosphate-bufferd saline containing 2 mM EDTA and homogenized in 50 mM Tris-HCL pH 7.4, 350 mM NaCl, 100 mM DTT, 0.1% SDS, 0.5% NP-40 and a cocktail of protease inhibitors (Roche Diagnostics). Protein whole cell extracts were separated on 4-12% Bis-tris gels (Invitrogen) and transferred onto nitrocellulose membranes to detect APP-FL, APP-C99, APP-C83 and AICD (CT15, Sigma), sAPPα (6E10, Signet), Notch-FL and NICD (Sigma), ADAM10 (Calbiochem), ADAM17 (Calbiochem), BACE1 (EE17, Sigma), NCT (NCT164, BD Bioscience), PS1-FL and PS1-NTF (MAB1536, Chemicon International), Pen-2 (UD-1, 1:500, a gift of Helena Karlström), and β-Action (Sigma).

Row | Compound | intracellular accumulation of APP-C99 and APP-C83
1 | N[C@H](CO)C(=O)O [D-serine] | did not affect the production of APP-C99/APP-C83
2 | C[C@H](NC(=O)Cc1cc(F)cc(F)c1)C(=O)N[C@H](C(=O)OC(C)(C)C)c1ccccc1 [DAPT, N-[N-(3,5-difluorophenacetyl)-L-alanyl]-S-phenylglycine t-butyl ester] | increased levels of both APP-C83 and APP-C99
3 | CC12CC3CC(C)(C1)CC(N)(C3)C2 [memantine, 1-amino-3,5-dimethyladamantane] | triggered the accumulation of APP-C83
